This note sets out measurements from patent US11866414B2, “Substituted heterocyclic compounds” (BRISTOL-MYERS SQUIBB COMPANY, priority 2021, dated 2024).

Data set [1] deals with IFNα-induced STAT phosphorylation (pSTAT5). The data set can be described thus: IFNα-induced STAT phosphorylation in human whole blood. Type of data set: cell-based. The settings on record: 1 h compound, 1000 U/mL IFNα A/D 15 min, CD3 positive population, read-out: Human Whole blood IFNa pSTAT5 IC50.
Data set [2] in a line: Brain penetration in vivo assay (brain and plasma exposure). Further details: species or system mouse.
A further data set can be described thus: in vitro. The settings on record: human, Caco-2, pH 7.4.
The nature of data set [3]: Bidirectional permeability assay in Caco-2 cells. The following applies: human, Caco-2, pH 7.4.
For another data set, the system named is Caco-2 cells. The settings on record: human, Caco-2, 2 h, 3 μM, pH 7.4.

Marks after values point to notes of the source that are not given here.

For the compound `[2H]C([2H])([2H])NC(=O)c1nnc(NC(=O)C2CC2)cc1Nc1nc(F)cc(-c2cnn(C)n2)c1OC` [Example 62, 6-(Cyclopropanecarboxamido)-4-((6-fluoro-3-methoxy-4-(2-methyl-2H-1,2,3-triazol-4-yl)pyridin-2-yl)amino)-N-(methyl-d3)pyridazine-3-carboxamide], in data set [1], the IC50 (usually the concentration at which inhibition is half-maximal) was determined as 120 nM. Besides, the Kp at 1.5 h in data set [2] (C57BL6, mouse, brain / plasma, 2 mg/kg, footnote *****: 2 mpk iv solution dose, exposures measured at 90 minutes, read-out: Ratio of exposure in brain to plasma (mouse)) was 0.6. Further, in the data set “in vitro”, the Papp A→B – broadly, how fast a substance crosses the layer from the apical side – at 2 h, 3 μM is 43.2 ×10⁻⁶ cm/s and the efflux ratio (in general, the permeability from basolateral to apical divided by that in the opposite direction, in the common usage) at 2 h, 3 μM came to 0.4.
As to `[2H]C([2H])([2H])NC(=O)c1nnc(NC(=O)OC)cc1Nc1cccc(-c2cnn(C)n2)c1OC` [Example 7, methyl N-(5-{[2-methoxy-3-(2-methyl-2H-1,2,3-triazol-4-yl)phenyl]amino}-6-[(^2H3)methylcarbamoyl]pyridazin-3-yl)carbamate], the IC50 in data set [1] stood at 390 nM. The Kp at 40 min in data set [2] (C57BL6, mouse, brain / plasma, 2 mg/kg, footnote **: 2 mpk iv solution dose, exposures measured at 40 minutes, read-out: Ratio of exposure in brain to plasma (mouse)) came to 0.5. Further, in “in vitro”, the apical-to-basolateral permeability (Papp A→B) at 2 h, 3 μM came to 41.6 ×10⁻⁶ cm/s and the efflux ratio at 2 h, 3 μM was determined as 0.4.
For the compound `C[C@H]1O[C@@H](O[C@H]2[C@@H](O)C[C@H](O[C@H]3[C@@H](O)C[C@H](O[C@H]4CC[C@@]5(C)[C@H](CC[C@@H]6[C@@H]5C[C@@H](O)[C@]5(C)[C@@H](C7=CC(=O)OC7)CC[C@]65O)C4)O[C@@H]3C)O[C@@H]2C)C[C@H](O)[C@@H]1O` [Digoxin, reference compound], in data set [3], the Papp A→B at 2 h, 3 μM was 1.8 ± 0.7 ×10⁻⁶ cm/s; the Papp B→A – broadly, how fast a substance crosses the layer from the basolateral side – at 2 h, 3 μM is 26.5 ± 7.4 ×10⁻⁶ cm/s; the efflux ratio at 2 h, 3 μM was found to be 14.7.
In the case of `[2H]C([2H])([2H])NC(=O)c1nnc(NC(=O)C2CC2)cc1Nc1cccc(-c2cnn(CCF)n2)c1OC` [Example 2, 6-cyclopropaneamido-4-({3-[2-(2-fluoroethyl)-2H-1,2,3-triazol-4-yl]-2-methoxyphenyl}amino)-N—(^2H3)methylpyridazine-3-carboxamide], in data set [2] (footnote *: 2 mpk iv solution dose), the “Ratio of exposure in brain to plasma (mouse)” value is reported as 0.1*. For the same compound, in the data set with Caco-2 cells, the “CACO2 (A-B)” value is reported as 427 nm/s.
With `[2H]C([2H])([2H])NC(=O)c1nnc(NC(=O)C2CC2)cc1Nc1cc(C)cc(-c2cnn(C)n2)c1OC` [Example 17, 6-cyclopropaneamido-4-{[2-methoxy-5-methyl-3-(2-methyl-2H-1,2,3-triazol-4-yl)phenyl]amino}-N—(^2H3)methylpyridazine-3-carboxamide], the “Ratio of exposure in brain to plasma (mouse) (1 h, 10 mpk, po)” value in data set [2] (footnote ***: nanosupension in 0.5% methocel A4M, 0.1% tween 80, 99.4% water) is given as 0.2***. In the data set with Caco-2 cells, the “CACO2 (A-B)” value came to 282 nm/s.
